According to US11401253B2, “16-methyl-oxacyclohexadecan-2-one and 16-methyl-azacyclohexadecan-2-one derivatives as antimicrobial agents” (THE UNIVERSITY OF MONTANA, priority 2017, dated 2022):
Values after ≈ are worked out from the molar mass of the structure shown. Values joined by “and” are separate entries in the source; they are usually repeats but may differ in a detail not shown here. Equal entries are not always repeated. “Also recorded” adds a separate entry of the source.

What was measured:
S. aureus CAIRD148 = test: Antibiotic testing, methicillin-resistant S. aureus CAIRD148; type: cell-based; details: Staphylococcus aureus, CAIRD148; methicillin-resistant strain
Description: (§1) Both the methyl ester and the diacetate derivatives of BPL 76 slightly less but still very strong activity against the same four MRSA strains (Table 11). The activities of compounds BPL 76 and BPL 81 were compared to several known antibiotics against three methicillin-resistant strains of S. aureus [FIG. 6, comparative data provided by Hartford Hospital, Center for Anti-Infective Research and Development (CAIRD)].

Candida glabrata = test: Antibiotic testing (MIC), Candida glabrata; type: cell-based; details: Nakaseomyces glabratus; growth inhibition ≥90%; read-out: minimum inhibitory concentration, Candida glabrata
P. aeruginosa = test: Antibiotic testing (MIC), gram negative P. aeruginosa; type: cell-based; details: Pseudomonas aeruginosa; read-out: MIC, P. aeruginosa
Experimental: (§2) None of this collection of compounds were active against Gram-negative bacteria
(§3) Additionally, BPL 76 and derivatives were tested against a panel of gram negative bacteria including K. pneumonia, P. aeruginosa and E. coli (Table 12).

[1] = test system: Mycobacterium tuberculosis; test: microbe, parasite or virus in culture; details: read-out: MIC, MABA
S. aureus CAIRD116 = test: Antibiotic testing, methicillin-resistant S. aureus CAIRD116; type: cell-based; details: Staphylococcus aureus, CAIRD116; methicillin-resistant strain
Description: as §1

[2] = test system: Staphylococcus aureus (13709); test: Antibiotic testing (MIC), S. aureus 13709; type: cell-based; details: growth inhibition ≥90% relative to drug-free controls, read-out: minimum inhibitory concentration, Staphylococcus aureus (13709)
E. coli (25922) = test: Antibiotic testing (MIC), gram negative E. coli; type: cell-based
Experimental: as §2, §3

Vero cell = test: Cytotoxicity (MTS), Vero cells; type: cell-based, monkey; details: Primates, 72 hours exposure
C. albicans = test: Antibiotic testing (MIC), C. albicans; type: cell-based; details: Candida albicans; growth inhibition ≥90%; read-out: minimum inhibitory concentration, C. albicans
[3] = test system: Vero, HepG2 and J774 cells; test: Cytotoxicity, mammalian cell lines (summary statement); type: cell-based
Experimental: Cytotoxicity for Vero, HepG2 and J774 cells were determined following 72 hours exposure to BPL76 and analogs. Cell viability was assessed on the basis of cellular conversion of MTS dye into a soluble formazan product using the Promega CellTiter 96 Aqueous Non-Radioactive Cell Proliferation Assay. After incubation at 37° C. for 72 h, medium was removed and monolayers were washed twice with 100 μl of warm Hanks' balanced salt solution (HBSS). One hundred microliters of warm medium and 20 μl of freshly made MTS-PMS [3-(4,5-dimethylthiazol-2-yl)-5-(3-carboxymethoxyphenyl)-2-(4-sulfophenyl)-2H-tetrazolium and […]](100:20) (Promega) were added to each well, plates were incubated for 3 h, and absorbance was determined at 490 nm. Viability was assessed on the basis of cellular conversion of MTS dye into a soluble formazan product using the Promega CellTiter 96 Aqueous Non-Radioactive Cell Proliferation Assay as described in Falzari K, Zhu Z, Pan D, Liu H, Hongmanee P, et al. (2005). In vitro and in vivo activities of macrolide derivatives against Mycobacterium tuberculosis were determined as described in Ekins, S, Reynolds, R C, Franzblau, S G, et al. Enhancing Hit Identification in Mycobacterium tuberculosis Drug Discovery Using Validated Dual-Event Bayesian Models PLOS ONE (2013) 8:5, e63240. […]

Streptococcus pyogenes = test: Antibiotic testing (MIC), Streptococcus pyogenes; type: cell-based; details: growth inhibition ≥90%, read-out: minimum inhibitory concentration, Streptococcus pyogenes
[4] = Bactericidal activity (therapeutic index statement); type: cell-based
HepG2 = test: Cytotoxicity (MTS), HepG2 cells; type: cell-based; details: Homo sapiens, 72 hours exposure
[5] = test system: primary human peripheral blood mononuclear cells (PBMCs); test: Cell death in primary PBMCs; type: cell-based; details: highest concentration tested, 500 μg/ml
Experimental: Additionally the BPL76 compound was tested against primary human peripheral blood mononuclear cells (PBMCs) and induced very little cell death, with only up to 60% death induced at the highest concentration tested, 500 μg/ml (not shown).

B. anthracis = test: microbe, parasite or virus in culture; type: cell-based; details: Bacillus anthracis, read-out: minimum inhibitory concentration, B. anthracis
K. pneumoniae (10031) = test: Antibiotic testing (MIC), gram negative K. pneumoniae; type: cell-based
Experimental: as §2, §3

J774 = test: Cytotoxicity (MTS), J774 cells; type: cell-based, murine; details: Mus musculus, 72 hours exposure
[6] = test system: non-replicating persistence Mycobacterium tuberculosis (NRP-TB); test: Low oxygen recovery assay (LORA), non-replicating persistence Mtb; type: cell-based; details: non-replicating persistence, hypoxic conditions
Enterococcus faecalis = test: Antibiotic testing (MIC), Enterococcus faecalis; type: cell-based; details: growth inhibition ≥90%, read-out: minimum inhibitory concentration, Enterococcus faecalis
[7] = test system: Mycobacterium tuberculosis
GFP synthesis = test: Cell-free translation assay with GFP reporter; type: biochemical; details: 50 μM and 250 μM, 37° C., readings for 2 hr
Experimental: Further assessment of the effect of BPL76 on protein translation was done using a cell-free translation assay. The plasmid pY71-sfGFP^55 (5 ng) was translated in the PUREexpress in vitro protein synthesis system (New England Biolabs). The final concentrations of erythromycin, josamycin and tylosin in the translation reactions were 50 μM. The reactions were incubated at 37° C. and fluorescence readings (excitation: 488 nm, emission, 520 nm) were taken every 20 min for 2 hr.

Gram-positive bacteria = test: Antibiotic panel, Gram-positive bacteria; type: cell-based; details: 1 μM-1 mM/well
Description: as §2

S. aureus CAIRD142 = test: Antibiotic testing, methicillin-resistant S. aureus CAIRD142; type: cell-based; details: Staphylococcus aureus, CAIRD142; methicillin-resistant strain
Description: as §1

Bacillus subtilis = test: Antibiotic testing (MIC), Bacillus subtilis; type: cell-based; details: growth inhibition ≥90%, read-out: minimum inhibitory concentration, Bacillus subtilis

Question: For `C[C@@H]1CCCCCCCCC[C@H](O)C(=O)C[C@@H](SC[C@@H](O)C(=O)O)C(=O)O1` [BPL 76, (S)-2-hydroxy-3-(((3R,6S,16R)-6-hydroxy-16-methyl-2,5-dioxooxacyclohexadecan-3-yl)thio)propanoic acid], which MIC (S. aureus CAIRD148) is on record?
Answer: 1 µg/mL (≈ 2.47 µM)

Question: What about the MIC (Candida glabrata) of the same compound?
Answer: 6 µg/mL (≈ 14.8 µM)

Question: What about the MIC (P. aeruginosa) of the same compound?
Answer: > 1000 µM

Question: What about the MIC [1] of the same compound?
Answer: 25 µg/mL (≈ 61.8 µM)

Question: And the MIC (S. aureus CAIRD116)?
Answer: 1 µg/mL (≈ 2.47 µM)

Question: And the MIC [2]?
Answer: 1 µg/mL (≈ 2.47 µM)

Question: What about the “activity against E. coli (in words)” value (E. coli (25922)) of the same compound?
Answer: weakly active

Question: And the MIC (E. coli (25922); Escherichia coli, read-out: MIC, E. coli (25922))?
Answer: 1000 µM and 405 µg/mL

Question: And the IC50 (Vero cell)?
Answer: 61.5 µg/mL (≈ 152 µM)

Question: And the MIC (C. albicans)?
Answer: 26 µg/mL (≈ 64.3 µM)

Question: And the mammalian toxicity concentration [3]?
Answer: ~60 µg/mL

Question: And the MIC (Streptococcus pyogenes)?
Answer: 3 µg/mL (≈ 7.42 µM)

Question: What about the “efficacious concentration to induce bactericidal activity” value [4] of the same compound?
Answer: ~1 µg/mL

Question: What about the IC50 (HepG2) of the same compound?
Answer: 64.8 µg/mL (≈ 160 µM)

Question: What about the “cell death induced in PBMCs” value [5] of the same compound?
Answer: up to 60%

Question: What about the MIC (B. anthracis) of the same compound?
Answer: 3 µg/mL (≈ 7.42 µM)

Question: And the “activity against K. pneumonia (in words)” value (K. pneumoniae (10031))?
Answer: weakly active

Question: What about the MIC (K. pneumoniae (10031); Klebsiella pneumoniae, read-out: MIC, K. pneumoniae (10031)) of the same compound?
Answer: 1000 µM and 405 µg/mL

Question: And the IC50 (J774)?
Answer: 16.8 µg/mL (≈ 41.5 µM)

Question: And the MIC ([6]; Mycobacterium tuberculosis, read-out: MIC, LORA)?
Answer: 24 µg/mL (≈ 59.3 µM)

Question: What about the “MIC, LORA” value [6] of the same compound?
Answer: ~24 µg/mL (≈ 59.3 µM)

Question: What about the MIC (Enterococcus faecalis) of the same compound?
Answer: 13 µg/mL (≈ 32.1 µM)

Question: And the “MIC, MABA” value [7]?
Answer: ~25 µg/mL (≈ 61.8 µM)

Question: And the “fold less active against Mtb than against MRSA” value [7]?
Answer: 25 fold

Question: What about the “times less potent than rifampicin against Mtb” value [7] of the same compound?
Answer: 100 ×

Question: And the “effect on GFP synthesis and corresponding fluorescence” value (GFP synthesis)?
Answer: no effect at either concentration; also recorded: lack of inhibition

Question: What about the “activity against Gram-positive bacteria” value (Gram-positive bacteria) of the same compound?
Answer: strongest activity

Question: And the MIC (S. aureus CAIRD142)?
Answer: 2 µg/mL (≈ 4.94 µM)

Question: What about the MIC (Bacillus subtilis) of the same compound?
Answer: 13 µg/mL (≈ 32.1 µM)
